Experimental data reported in patent US5336485A, “Method for protecting animals against tacrine induced cytotoxic injury using sterol compounds” (priority 1993, dated 1994).
Structures can show the parent of a compound that is named as a salt.

Assays:
[1] = tested on: liver; assay: CCl4 induced hepatotoxicity in rats (serum AST/ALT); format: in vivo, rat
Method: In vivo experiments were performed to determine if alpha-TS administration protects the liver from chemical toxicity. The liver is the target organ for CCl4. CCl4 is a hepatotoxic agent that induces centrilobular liver necrosis through its metabolism to free radicals. Male Sprague-Dawley rats were given an intraperitoneal dose (100 mg/kg) of a tocopherol analog 24 hours prior to a CCl4 challenge (2.9g/kg given by oral garage). Forty eight hours after the challenge, the rats were sacrificed and the levels of aspartate aminotransferase (AST) and alanine aminotransferase (ALT) were measured.
As discussed above, SGOT levels provide a clinical assessment of hepatotoxicity (liver damage).
Succinate analogs were administered to male Sprague-Dawley rats 20 hours prior to a 1 g CCl4 /kg body weight oral challenge and the AST and ALT serum enzyme levels were measured 48 hours after the challenge.
Similar to the experiments were described above, the ionizable congeners were administered to Sprague-Dawley rats by i.p. injection of a 100 mg ionizable congener/kg body weight dose 20 hours prior to oral administration of a 1 g/kg dose of CCl4, and the AST and ALT levels were measured 48 hours after the CCl4 challenge.

[2] = tested on: liver; assay: Partial liver ischemia/reperfusion-induced injury in rats; format: in vivo, rat; settings: dihydrocholesterol sulfate vs dihydrocholesterol plus sodium sulfate
Method: 20 hours prior to global occlusion, one group of 10 rats was provided with 64 mg cholesterol/kg body weight and 100 mg tris succinate/kg body weight by i.p. injection, and another group of 10 rats was provided with 100 mg cholesteryl succinate/kg body weight. A control group of rats was only partially occluded for the one hour period. Ninety percent of the rats pretreated with cholesteryl succinate tris salt survived while only 10% of those pretreated with the combination of cholesterol and tris succinate survived. Table 22 of a partial ischemia study where male Sprague-Dawley rats were subjected to occlusion of the blood supply to the left lateral and median lobes of the liver for 60 minutes followed by reperfusion for 24 hours. During this time, the normal blood supply to the other lobes of the liver was maintained. […] Serum was obtained for AST and ALT measurements.
^a Partial liver ischemia was induced in male Sprague Dawley rats

[3] = tested on: male Sprague-Dawley rats; assay: CCl4 induced lethality in rats; format: in vivo, rat
Method: The in vivo effect of alpha-TS was tested by administering a lethal oral dose of carbon tetrachloride (CC14) to male Sprague-Dawley rats.
In the experiment described in Table 3, a single dose of alpha-TS dissolved in peanut oil:ethanol (3:2) was given to male Sprague-Dawley rats. The dose was given 24 hours prior to an orally administered CCl4 challenge dissolved in peanut oil. Two to nine animals were tested per treatment. The control group comprised rats pretreated with the vehicle only. Survival was monitored for at least 7 days after the toxic insult.
In vivo experiments were performed to determine if the time the ionizable tocopherol analog (alpha-TS) is administered affects the cytoprotective functions. Male Sprague-Dawley rats were given a 100 mg/kg intraperitoneal dose of a tocopherol or succinate analog and were given a lethal dose of CCl4 (2.9g/kg by oral gavage). Table 7 contrasts the times of administration of the tocopherol or succinate analog and the times of administration of the lethal dose of CCl4 with the survival of the rats in the study (3to 6 rats per protective treatment).
Several tocopherol and succinate analogs were tested for CCl4 induced lethality. A single dose of the tocopherol or succinate analog was administered twenty four hours prior to orally administering 2.9 g CCl4 /kg body weight. Three to six animals were analyzed per treatment. The rats were monitored for seven days. […]

[4] = tested on: rat hepatocytes; assay: EMS-induced cytotoxicity (LDH leakage/cell death) in rat hepatocyte suspensions; settings: for Protection From Toxic Injury: EMS 3 h
Method: To determine if alpha-TS is a cytoprotective agent under physiological conditions, liver cells were incubated with Waymouth's medium containing approximately 1 mM extracellular Ca^2+ in the presence and absence of alpha-TS.
(§1) At each time-point, rapid separation of viable from non-viable hepatocytes and medium was accomplished by the dibutyl phthalate centrifugation method. Cell viability was monitored hourly by measuring LDH leakage with a Cobas Analyzer and intracellular [K^+ ]with a flame photometer. LDH was routinely measured in the medium while intracellular K^+ was measured in the 10% perchloric acid lysate of viable cells. Lipid peroxidation was determined by measuring TBA reactants in the medium. […] The samples were diluted with 0.3 ml 1% ascorbate in 0.1 M SDS, 0.4 ml ethanol, sonicated and extracted once with 0.8 ml hexane. Next, the hexane extract was evaporated to dryness with N2, the residue dissolved in 2.5% ascorbate in methanol (1 ml) and analyzed (100 μl) by high-performance liquid chromatograph (HPLC). […] The mobile phase, 95% MeOH was run isocratically and the HPLC retention times for delta and alpha-tocopherol were approximately eleven and sixteen minutes, respectively. […] Following the addition of 0.2 ml 4 M HC1, the neutralized KOH-MeOH extracted with 0.8 ml hexane. […] A standard curve for each tocopherol congener was run with every assay. […] Only viable cells were monitored in the laboratory procedures.
To determine the relative cytoprotective potency of various tocopherol derivatives, the effect of varying doses of a tocopherol analog on the protection against EMS-induced toxicity was examined in vitro on rat hepatocyte suspensions. Specifically, the following ionizable tocopherol congeners were tested: alpha-TS, alpha tocopheryl glutarate (alpha-TG), and alpha tocopheryl phosphate (alpha-TP). […] 0.1 nmoles is the lower detection limit.
In vitro experiments were conducted with a variety of different tocopherol and succinate analogs to determine which were protective against EMS induced toxicity. After five hours of incubation with 50 mM EMS and 25μM of a tocopherol or succinate analog, cytoprotection was determined by comparing the percentage of LDH leakage from control hepatocytes (vehicle only, assumed 100% protection) with the EMS only treated cells (assumed 0% protection).
An in vitro experiment with rat hepatocyte suspensions was performed to determine the effect of esterase inhibitors on alpha-TS.
(§2) Rat hepatocyte suspensions were subjected to 50 mM EMS and the percentage of cell death, the percentage of intracellular K^+ (a metabolic parameter as discussed above), the depletion of ATP and the effect on lipid peroxidation were monitored.

[5] = tested on: rat hepatocytes; assay: Cellular alpha-tocopherol and tocopherol ester content of rat hepatocytes; settings: for Hepatocyte Concentration Alpha-T: EMS 3 h
Method: as §1
The hepatocytes were subsequently exposed to 50mM EMS for three hours.

[6] = tested on: rat hepatocytes; assay: ATP content of rat hepatocyte suspensions; format: cell-based
Description: It is well known that the succinate molecule is utilized by the cell to produce ATP energy. In the tricarboxylic acid cycle, succinate is oxidized by succinate dehydrogenase to produce ATP. Oxidation occurs in the mitochondria and the mitochondria can utilize both succinate formed in the mitochondria or succinate transported to the mitochondria. Increasing ATP production may enhance cellular repair processes as well as normal metabolic processes. For example, the cell's ability to remove free intracellular Ca^2+ during a toxic insult is related to ATP production. Succinate administration stimulates gluconeogenesis to form glucose 6-phosphate which is used for producing energy anaerobically (ATP formation through glycolysis) and for producing reducing equivalents (NADPH formation through the hexose monophosphate shunt needed for lipid and nucleotide biosynthesis and other biosynthetic reductions and enzymatic reactions, e.g., glutathione reductase). An in vitro experiment was conducted to determine the relationship between the release of succinate from alpha-TS and the cellular ATP level. The experiment was performed by incubating a tocopherol analog in a rat hepatocyte suspension and measuring the ATP level at the beginning and end of the test.
as §2

[7] = tested on: cultured rat hepatocytes; assay: EMS-induced toxicity and lipid peroxidation in primary cultures of rat hepatocytes; format: cell-based; settings: for Cell Death / Lipid Peroxidation: 50 mM EMS, 6 hrs
Method: To confirm the cytoprotective properties of alpha-TP under physiological conditions in vitro tests using primary cultures of adult rat hepatocytes were conducted (another in vitro model system). Unlike the hepatocyte suspensions used for the in vitro modeling discussed above, cultured hepatocytes retain their in vivo cuboidal shape as a result of attachment to a collagen matrix, and their lifespan in vitro is 5 to 7 days, instead of 8-12 hours (as with suspensions).

[8] = Tissue distribution of alpha-tocopherol and alpha-tocopherol ester in rats; format: in vivo, rat; settings: 100 mg/kg ip, 24 h
Method: 100 mg/kg body weight of a tocopherol analog was administered to Sprague-Dawley rats using a peanut oil:ethanol vehicle (3:2). Twenty four hours later the rats were sacrificed and the accumulation of the tocopherol analog in the liver was determined.
A similar in vivo experiment to that discussed in conjunction with Table 5 was performed to determine if other tissues accumulate alpha-TS. Male Sprague-Dawley rats were given a 100 mg/kg dose of alpha-TS using a variety of chemical forms and vehicles. A variety of techniques were used to administer the alpha-TS. Twenty four hours later the rats were sacrificed and the tissues were tested for alpha-TS accumulation.

[9] = tested on: rat hepatocytes; assay: EMS-induced lipid peroxidation in rat hepatocyte suspensions; format: cell-based; settings: Rattus norvegicus, Hepatocyte; 25 μM, 50 mM EMS
Method: as §1, §2

[10] = 100 mg/kg ip (dihydrocholesterol 80 + sodium sulfate 30 mg/kg), 48 h after 1 g/kg CCl4 (Table 35)
[11] = 100 mg/kg ip, PEG 400 vehicle, 48 h after 1 g/kg CCl4 (Table 34)
[12] = 100 mg/kg, single dose 24 h prior, CCl4 […]

SMILES: CC(C)CCC[C@@H](C)[C@H]1CC[C@H]2[C@@H]3CC[C@H]4C[C@@H](OS(=O)(=O)O)CC[C@]4(C)[C@H]3CC[C@]12C [Dihydrocholesterol sulfate, sodium salt]
- ALT [1, 10]: 0.02 ± 0.01 10^3 units/L
- AST [1, 10]: 0.17 ± 0.04 10^3 units/L
- ALT [1, 11]: 0.03 ± 0.03 10^3 units/L
- AST [1, 11]: 0.15 ± 0.07 10^3 units/L
- inhibition in vivo at 100 mg/kg ([1]; Rattus norvegicus, ip, 48 h, read-out: % Hepatoprotection): 100%
- protection against CCl4 hepatotoxicity (in words) ([1]; rats, serum enzyme levels): complete protection against hepatotoxicity
- ALT [2]: 1305±568

SMILES: Cc1c(C)c2c(c(C)c1OP(=O)(O)O)CCC(C)(CCCC(C)CCCC(C)CCCC(C)C)O2 (racemic) [alpha-TP, dl-alpha-tocopheryl phosphate]
- Days Survived After CCl4 Treatment [3, 12]: 3 days
- minimal effective concentration ([4]; Rattus norvegicus, Hepatocyte, read-out: medium concentration with significant protection against EMS toxicity): ≥ 50 µM
- cellular accumulation of alpha-TP ([5]; EMS): 2.68 nmols/10^6 cells
- Rate of ATP Depletion ([6]; 50 μM): 2.0 ± 0.2 nmoles/10^6 cell/hr
- Cellular ATP ([6]; 50 μM, 0 Hr): 19.4 ± 1.6 nmoles/10^6 cells
- Cellular ATP ([6]; 50 μM, 6 Hr): 7.3 ± 0.2 nmoles/10^6 cells
- Cell Death ([7]; 25 μM): 16 ± 3%
- Lipid Peroxidation ([7]; 25 μM): 2.5 ± 0.9 μmoles MDA/10^6 cells
- Cell Death ([7]; 100 μM): 15 ± 3%
- Lipid Peroxidation ([7]; 100 μM): 2.3 ± 0.1 μmoles MDA/10^6 cells
- Cell Death ([7]; 250 μM): 20 ± 3%
- Lipid Peroxidation ([7]; 250 μM): 1.7 ± 0.1 μmoles MDA/10^6 cells
- cytoprotection at 3.5 mM extracellular Ca2+ ([7]; 3.5 mM Ca2+): eliminated

SMILES: Cc1c(C)c2c(c(C)c1O)CC[C@@](C)(CCC[C@H](C)CCC[C@H](C)CCCC(C)C)O2 [alpha-T, d-alpha-tocopherol, reference compound]
- Survival after CCl4 treatment ([3]; 100 mg/kg ip 24 h prior, […] CCl4 oral): No
- Protection from CCl4 ([3]; 100 mg/kg ip (Table 5)): No
- Days Survived After CCl4 Treatment ([3]; 100 mg/kg ip, 24 h prior, CCl4 2.2 g/kg): 3 days
- Days Survived After CCl4 Treatment ([3]; 100 mg/kg ip, 24 h prior, CCl4 3.8 g/kg): 2 days
- Days Survived After CCl4 Treatment ([3]; 100 mg/kg ip, 24 h prior, CCl4 5.0 g/kg): 2 days
- Days Survived After CCl4 Treatment ([3]; 100 mg/kg ip, 24 h prior, CCl4 […]): 2 days
- Days Survived After CCl4 Treatment [3, 12]: 3 days
- Days Survived after CCl4 ([3]; CCl4 1.7 g/kg): three
- Liver Concentration Alpha-T [8]: 128 ± 10 nmol/g
- inhibition at 25 µM [9]: 9%
- Protection From Toxic Injury ([4]; 25 μM): No
- Protection From Toxic Injury ([4]; 50 μM): No
- Protection From Toxic Injury ([4]; 250 μM): No
- inhibition at 25 µM ([4]; Rattus norvegicus, Hepatocyte, 5 h, read-out: Percent Cytoprotection): 8 ± 10%
- inhibition at 25 µM ([4]; Rattus norvegicus, Hepatocyte, read-out: % Protection): 19%
- protection of hepatocytes against EMS ([4]; up to 250 μM): Protection was not afforded
- Hepatocyte Concentration Alpha-T ([5]; 25 μM): 2.1 ± 0.7 nmol/10^6 cells
- Cellular alpha-T ([5]; 25 μM, Table 2): 2.6 nmoles/10^6 cells
- Hepatocyte Concentration Alpha-T ([5]; 50 μM): 6.1 ± 0.7 nmol/10^6 cells
- Hepatocyte Concentration Alpha-T ([5]; 250 μM): 23.7 ± 2.4 nmol/10^6 cells
- Rate of ATP Depletion ([6]; 25 μM): 1.5 ± 0.2 nmoles/10^6 cell/hr
- Cellular ATP ([6]; 25 μM, 0 Hr): 15.2 ± 1.6 nmoles/10^6 cells
- Cellular ATP ([6]; 25 μM, 6 Hr): 6.3 ± 0.8 nmoles/10^6 cells
